Patent US8338423B2, “Compositions for the treatment of hyperphenylalaninemia” (Universidad de Zaragoza, priority 2007, dated 2012)
Where a chain is given by its changes, count along the chain named.

Columns and labels:
Format in all cases: binding
[1] = biological target: T1, wt-PAH (Homo sapiens, UniProt P00439); experiment: ANS-monitored thermal unfolding of wt-PAH; conditions: for ΔT0.5 PAHwt / T0.5 PAHwt (half denaturation temperature): 100 μM compound; for ΔT0.5 PAHwt: vs no ligand; for T0.5 PAHwt (half denaturation temperature): mean ± SD; for stabilizing effect on wt-PAH: 25 μM compound (FIG. 2)
T1 construct: made in house; host or cells: E. coli
T1 sequence (P00439 1-452): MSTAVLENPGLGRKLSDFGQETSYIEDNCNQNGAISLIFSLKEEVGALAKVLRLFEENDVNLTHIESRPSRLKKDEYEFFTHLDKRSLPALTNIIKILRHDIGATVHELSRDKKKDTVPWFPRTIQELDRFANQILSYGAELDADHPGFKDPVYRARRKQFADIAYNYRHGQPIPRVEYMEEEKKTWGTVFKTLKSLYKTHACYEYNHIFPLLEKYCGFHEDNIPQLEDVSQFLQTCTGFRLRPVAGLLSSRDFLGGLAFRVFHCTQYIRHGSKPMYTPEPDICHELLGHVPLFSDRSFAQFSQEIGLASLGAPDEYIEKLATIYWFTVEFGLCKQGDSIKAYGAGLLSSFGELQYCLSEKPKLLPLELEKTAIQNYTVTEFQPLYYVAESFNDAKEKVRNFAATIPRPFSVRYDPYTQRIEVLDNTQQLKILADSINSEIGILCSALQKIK
Protocol: (§1) HTS for ligand-induced PAH stabilization was performed by monitoring the thermal denaturation of recombinant pure PAH protein in the presence of the extrinsic fluorescent probe 8-anilino 1-naphtalene sulfonic acid (ANS; Aldrich). HTS experiments were performed in a FluoDia T70 High Temperature Fluorescence Microplate Reader (Photon Technology International). Protein-ligand solutions (200 uL) were dispensed into 96-well microplates (ThermoFast®96 Skirted from Abgene) and overlayed with mineral oil. Protein solutions contained 0.1 mg/ml PAH (2 μM in PAH subunit) in 20 mM Hepes 200 mM NaCl pH 7.0 and 100 μM ANS. Ligands were added in DMSO, at 100 μM and 2.5% final concentration, respectively. Control experiments in the absence of DMSO and/or ligands were routinely performed in each microplate. Ligands (from MayBridge HitFinder™ Collection Database) were manually added to the microplates containing the protein solutions and incubated at 25° C. for 30 min before loading them onto the microplate reader. Thermal denaturation was monitored by following the increase in ANS fluorescence intensity due to protein unfolding λexc=395 and λern=500 nm; filters (Matulis D, et. Al., Biochemistry 2005, 44(13):5258-66). Fluorescence was registered in the 25-75° C. range, at a 1° C./min scan rate and allowing the system to equilibrate at each temperature for 1 min before fluorescence acquisition The experiments were real-time monitored using the software provided by the manufacturer. After smoothing and normalization of the experimental data, ligand induced stabilization was screened by estimation of the T0.5 as midpoint temperature of the transition defined as the temperature where half of the unfolded fluorescence signal (fu) is experimentally observed, using a home-built software written in C++ and the following expression (equation 1): […]
(§2) Additional thermal denaturation experiments were performed on a Cary Eclipse fluorescence spectrophotometer equipped with a temperature controlled Peltier multicell holder (Varian). Samples containing PAH (2 μM subunit) in 20 mM NaHepes, 200 mM NaCl, pH 7.0, 100 μM ANS, 2.5% DMSO and 0-100 μM ligands were incubated at room temperature for 30 min to allow equilibration prior to measurements. Thermal denaturation was monitored by following changes in ANS fluorescence emission (excitation at 395 and emission at 500 nm; slits 10 nm) at a 1 K/min in a 20-80° C. range. Each run contained 4 different samples, including a control in the absence of ligand. Data analysis was performed by fitting of the experimental fluorescence to equation 1.

[2] = biological target: T2, PAH103-428 (catalytic domain) (Homo sapiens, UniProt P00439); experiment: ANS-monitored thermal unfolding of PAH103-428; conditions: for ΔT0.5 PAH103-428 / T0.5 PAH103-428: 100 μM compound; for ΔT0.5 PAH103-428: vs no ligand; for T0.5 PAH103-428: mean ± SD; for stabilization of PAH103-428: 100 μM ligand
T2 construct: made in house; host or cells: E. coli
T2 sequence (P00439 103-428): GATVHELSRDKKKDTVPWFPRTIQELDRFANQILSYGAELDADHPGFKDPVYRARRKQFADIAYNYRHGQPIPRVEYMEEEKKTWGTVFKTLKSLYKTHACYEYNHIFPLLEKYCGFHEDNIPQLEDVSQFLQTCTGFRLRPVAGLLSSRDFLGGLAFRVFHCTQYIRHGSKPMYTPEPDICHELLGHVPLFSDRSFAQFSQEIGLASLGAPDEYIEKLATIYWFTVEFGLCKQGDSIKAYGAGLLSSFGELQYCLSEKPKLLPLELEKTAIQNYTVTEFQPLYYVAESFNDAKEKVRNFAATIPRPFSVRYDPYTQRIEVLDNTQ
Protocol: as §1, §2
(§3) Similar ligand-induced stabilization experiments were performed using i) a double truncated form of PAH equivalent to the catalytic domain (PAH103-428) lacking both the regulatory N-terminal domain and the tetramerization motif and existing as a functional dimmer and ii) the R68S-PAH mutant, associated to mild PKU and one of the few PKU mutants that display enough stability to be purified as a stable tetramer.

[3] = biological target: T3, R68S-PAH (Homo sapiens, UniProt P00439, R68S); experiment: ANS-monitored thermal unfolding of R68S-PAH; conditions: for ΔT0.5 PAHR68S / T0.5 PAHR68S: 100 μM compound; for ΔT0.5 PAHR68S: vs no ligand; for T0.5 PAHR68S: mean ± SD; for stabilization of R68S-PAH: 100 μM ligand
T3 construct: made in house; host or cells: E. coli
T3 sequence (P00439 1-452 R68S): T1 sequence (P00439 1-452) with R68S
Protocol: as §1, §2, §3

| ΔT0.5 PAHwt [1] [°C] | T0.5 PAHwt (half denaturation temperature) [1] [°C] | ΔT0.5 PAH103-428 [2] [°C] | T0.5 PAH103-428 [2] [°C] | ΔT0.5 PAHR68S [3] [°C] | T0.5 PAHR68S [3] [°C] | stabilization of PAH103-428 [2] | stabilization of R68S-PAH [3] | stabilizing effect on wt-PAH [1] | Structure (SMILES) |
| --- | --- | --- | --- | --- | --- | --- | --- | --- | --- |
| 2.6 | 52.1 ± 0.9 | 4.3 | 49.2 ± 1.2 | 1.1 | 50.0 ± 1.4 | – | – | – | Cc1onc(-c2ccccc2)c1-c1n[nH]c(N)c1C#N [Compound 5, 5-amino-3-(5-methyl-3-phenyl-4-isoxazolyl)-1H-pyrazole-4-carbonitrile] |
| 2.7 | 52.2 ± 1.3 | 8.4 | 53.3 ± 1.5 | 3.2 | 52.1 ± 1.6 | significantly stabilized | significantly stabilized | – | Cn1cnc([N+](=O)[O-])c1N1CCN(C(c2ccccc2)c2ccccc2)CC1 [Compound 6, 1-benzhydryl-4-(1-methyl-4-nitro-1H-imidazol-5-yl)piperazine] |
| 13.6 | 63.1 ± 2.9 | 10.1 | 55.0 ± 1.3 | 8.2 | 57.1 ± 0.3 | significantly stabilized | significantly stabilized | significant | Nc1c(-c2ccc3ccccc3n2)c2ccc([N+](=O)[O-])cc2c(=O)n1Cc1ccccc1 [Compound 11, 3-amino-2-benzyl-7-nitro-4-(2-quinolyl)-1,2-dihydroisoquinolin-1-one] |
| 7.2 | 56.7 ± 1.5 | 1.2 | 46.1 ± 0.7 | 1.6 | 50.5 ± 0.5 | only a slight stabilized | only a slight stabilized | significant | Cc1ccnc(-n2c(=S)[nH]c3sc(C)c(C)c3c2=O)c1 [Compound 13, 5,6-dimethyl-3-(4-methyl-2-pyridinyl)-2-thioxo-2,3 dihydrothieno[2,3-d]pyrimidin-4(1H)-one] |
